Test results taken from patent US5258406A, “Sulfonimidamides” (priority 1992, dated 1993).
Read-outs that look alike come from different tables or passages of the source.

Columns and labels:
Assay type in all cases: in vivo
Lewis Lung Carcinoma = test: Inhibition of Lewis Lung Carcinoma growth in mice; settings: IP, DX 10
Protocol: (§1) The compounds were tested in C3H mice bearing a 6C3HED lymphosarcoma, also known as the Gardner lymphosarcoma (GLS), and in a variety of human tumor xenografts in CD1 nu/nu mice, including CX-1, LX-1, HXGC3, and VRC5. The 6C3HED lymphosarcoma was obtained from the Division of Cancer Treatment, National […] Institute, Tumor Bank, maintained at E. G. and G. Mason Research (Worcester, Mass.). The CX-1 human colon carcinoma and the LX-1 human lung carcinoma xenografts were obtained from the National Cancer Institute. The HXGC3 and VRC5 human colon xenografts were obtained from Dr. P. J. Houghton, St. Jude Children's Hospital in Memphis (see Br. J. Cancer, 37, 213 (1978)). First passage tumor was stored in liquid nitrogen using standard techniques. The transplanted tumor was reestablished from the Tumor Bank every six months or as needed. The tumor was maintained by serial passage twice weekly in C3H mice.
(§2) In the procedure the tumor was removed from passage animals and minced into 1- to 3-mm square fragments using sterile techniques. Tumor pieces were checked for sterility using both Antibiotic Medium 1 and Brain Heart Infusion (Difco, Detroit, Mich.). Recipient mice were shaved and tumor pieces were implanted subcutaneously in the auxiliary region by trocar. Drug therapy on the appropriate schedule was initiated on the day after tumor implant for 6C3HED and after a seven (7) day delay for xenografts (or other delay as noted in Table 2). The compound being tested was mixed with 2.5% Emulphor EL620 from GAF Corporation (1:40 dilution in saline). Food and water were provided ad libitium. The drug was administered orally in 0.5 ml of 2.5% Emulphor (unless otherwise indicated). The tumor was measured the day after treatment ended with two dimensional measurements (width and length) of the tumor taken using automated digital calipers interfaced to a microcomputer. Approximate weight for the tumor was calculated using the following formula [Worzalla, J. F., et al., Invest. New Drugs, 8, 241 (1990], (tumor weight in mg)=(width in mm)^2 ×(length in mm)/2.
(§3) At least one control group of an equal number of mice was treated with the same volume of 2.5% Emulphor only. The percent inhibition was determined by subtracting the ratio of the mean tumor size of the test group relative to the control group from one and multiplying the result times 100.
(§4) The results of several experiments in mice bearing a 6C3HED lymphosarcoma (or other tumor where indicated) when the indicated compounds were administered are provided in Table 2. In Table 2, column 1 gives the Example number of the compound used, column 2 lists the dose level in mg/kg, column 3 provides the percent inhibition of tumor growth, column 4 gives the number of mice which died relative to the total number of animals in the group, column 5 gives the method of administration of the compound, and column 6 gives the dosage schedule. The protocol used with other tumors was the same as with the 6C3HED lymphosarcoma.
(m) Tumor type Lewis Lung Carcinoma

[1] = test system: X5563 Plasma Cell Myeloma; settings: IP, DX 10
Protocol: as §1, §2, §3, §4
(p) Tumor type X5563 Plasma Cell Myeloma

ELC2 = test: Inhibition of ELC2 tumor growth in mice; settings: IP, DX 10
Protocol: as §1, §2, §3, §4

LX1 = settings: IP
Outline: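 Tumor fragments implanted subcutaneously by trocar in C3H mice (6C3HED) or CD1 nu/nu mice (xenografts); oral dosing in 2.5% Emulphor began day after implant (6C3HED) or after 7-day delay (xenografts). Tumor weight from caliper measurements the day after treatment ended; percent inhibition versus Emulphor-only controls.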

VRC5 = test system: VRC5
CX1 = settings: IP, DX 10, from day 7 after implant
GC3 = settings: IP, DX 10
MX1 = settings: IP, DX 10
[2] = 3.75 mg/kg, DX 10 (line among ELC2 lines)
[3] = 3.75 mg/kg, DX 10, from day 7 after implant
[4] = 7.5 mg/kg, DX 10, from day 7 after implant
[5] = 15 mg/kg, DX 10, from day 7 after implant
[6] = 30 mg/kg, DX 10, from day 7 after implant
[7] = IP, 7.5 mg/kg, DX 10, from day 7 after implant
[8] = IP, 15 mg/kg, DX 10, from day 7 after implant
[9] = IP, 30 mg/kg, DX 10, from day 7 after implant
[10] = IP, 60 mg/kg, DX 10, from day 7 after implant

With `Cc1ccc(S(=N)(=O)NC(=O)Nc2ccc(Cl)cc2)cc1C` (centres unmarked) [Example 36, N-[[(4-chlorophenyl)amino]carbonyl]-3,4-dimethylbenzenesulfonimidamide] the “% inhibition of tumor growth” value (Lewis Lung Carcinoma; 7.5 mg/kg) was 6%, the “Tox/Tot (mice which died / total)” value (Lewis Lung Carcinoma; 7.5 mg/kg) was 0/10 and the “% inhibition of tumor growth” value (Lewis Lung Carcinoma; 15 mg/kg) was 32%. For the same compound, the “Tox/Tot (mice which died / total)” value (Lewis Lung Carcinoma; 15 mg/kg) was 0/10, the “% inhibition of tumor growth” value (Lewis Lung Carcinoma; 30 mg/kg) was 34% and the “Tox/Tot (mice which died / total)” value (Lewis Lung Carcinoma; 30 mg/kg) was 0/10. For the same compound, the “% inhibition of tumor growth” value ([1]; 3.75 mg/kg) was 35%, the “Tox/Tot (mice which died / total)” value ([1]; 3.75 mg/kg) was 0/10 and the “% inhibition of tumor growth” value ([1]; 7.5 mg/kg) was 63%. For the same compound, the “Tox/Tot (mice which died / total)” value ([1]; 7.5 mg/kg) was 1/10, the “% inhibition of tumor growth” value ([1]; 15 mg/kg) was 88% and the “Tox/Tot (mice which died / total)” value ([1]; 15 mg/kg) was 4/10. For the same compound, the “% inhibition of tumor growth” value ([1]; 30 mg/kg) was 97%, the “Tox/Tot (mice which died / total)” value ([1]; 30 mg/kg) was 3/10 and the “% inhibition of tumor growth” value (ELC2; 7.5 mg/kg) was 0%. The “Tox/Tot (mice which died / total)” value (ELC2; 7.5 mg/kg) was 0/10, the “% inhibition of tumor growth” value (ELC2; 15 mg/kg) was 3% and the “Tox/Tot (mice which died / total)” value (ELC2; 15 mg/kg) was 0/10. The “% inhibition of tumor growth” value (ELC2; 30 mg/kg) was “TOX”, the “Tox/Tot (mice which died / total)” value (ELC2; 30 mg/kg) was 10/10 and the “% inhibition of tumor growth” value (LX1; [2]) was 0%. The “Tox/Tot (mice which died / total)” value (LX1; [2]) was 0/10, the “% inhibition of tumor growth” value (LX1; [3]) was 16% and the “Tox/Tot (mice which died / total)” value (LX1; [3]) was 0/10. The “% inhibition of tumor growth” value (LX1; [4]) was 1%, the “Tox/Tot (mice which died / total)” value (LX1; [4]) was 0/10 and the “% inhibition of tumor growth” value (LX1; [5]) was 18%. The “Tox/Tot (mice which died / total)” value (LX1; [5]) was 1/10, the “% inhibition of tumor growth” value (LX1; [6]) was “TOX” and the “Tox/Tot (mice which died / total)” value (LX1; [6]) was 10/10. The “% inhibition of tumor growth” value (VRC5; [7]) was 0%, the “Tox/Tot (mice which died / total)” value (VRC5; [7]) was 1/10 and the “% inhibition of tumor growth” value (VRC5; [8]) was 0%. The “Tox/Tot (mice which died / total)” value (VRC5; [8]) was 0/10, the “% inhibition of tumor growth” value (VRC5; [9]) was 44% and the “Tox/Tot (mice which died / total)” value (VRC5; [9]) was 4/10. For the same compound, the “% inhibition of tumor growth” value (VRC5; [10]) was “TOX”, the “Tox/Tot (mice which died / total)” value (VRC5; [10]) was 10/10 and the “% inhibition of tumor growth” value (VRC5; oral, 5 mg/kg, DX 10) was 0%. The “Tox/Tot (mice which died / total)” value (VRC5; oral, 5 mg/kg, DX 10) was 0/10, the “% inhibition of tumor growth” value (VRC5; oral, 10 mg/kg, DX 10) was 10% and the “Tox/Tot (mice which died / total)” value (VRC5; oral, 10 mg/kg, DX 10) was 0/10. For the same compound, the “% inhibition of tumor growth” value (VRC5; oral, 20 mg/kg, DX 10) was 45%, the “Tox/Tot (mice which died / total)” value (VRC5; oral, 20 mg/kg, DX 10) was 2/9 and the “% inhibition of tumor growth” value (CX1; 3.75 mg/kg) was 4%. The “Tox/Tot (mice which died / total)” value (CX1; 3.75 mg/kg) was 0/10, the “% inhibition of tumor growth” value (CX1; 7.5 mg/kg) was 10% and the “Tox/Tot (mice which died / total)” value (CX1; 7.5 mg/kg) was 0/10. The “% inhibition of tumor growth” value (CX1; 15 mg/kg) was 32%, the “Tox/Tot (mice which died / total)” value (CX1; 15 mg/kg) was 1/10 and the “% inhibition of tumor growth” value (CX1; 30 mg/kg) was 23%. For the same compound, the “Tox/Tot (mice which died / total)” value (CX1; 30 mg/kg) was 4/10, the “% inhibition of tumor growth” value (GC3; 3.75 mg/kg) was 6% and the “Tox/Tot (mice which died / total)” value (GC3; 3.75 mg/kg) was 0/10. For the same compound, the “% inhibition of tumor growth” value (GC3; 7.5 mg/kg) was 17%, the “Tox/Tot (mice which died / total)” value (GC3; 7.5 mg/kg) was 0/10 and the “% inhibition of tumor growth” value (GC3; 15 mg/kg) was 13%. The “Tox/Tot (mice which died / total)” value (GC3; 15 mg/kg) was 1/10, the “% inhibition of tumor growth” value (GC3; 30 mg/kg) was 12% and the “Tox/Tot (mice which died / total)” value (GC3; 30 mg/kg) was 9/10. The “% inhibition of tumor growth” value (MX1; 3.75 mg/kg) was 5%, the “Tox/Tot (mice which died / total)” value (MX1; 3.75 mg/kg) was 0/10 and the “% inhibition of tumor growth” value (MX1; 7.5 mg/kg) was 0%. For the same compound, the “Tox/Tot (mice which died / total)” value (MX1; 7.5 mg/kg) was 0/10, the “% inhibition of tumor growth” value (MX1; 15 mg/kg) was 0% and the “Tox/Tot (mice which died / total)” value (MX1; 15 mg/kg) was 0/10. The “% inhibition of tumor growth” value (MX1; 30 mg/kg) was 12% and the “Tox/Tot (mice which died / total)” value (MX1; 30 mg/kg) was 4/10.
